From article PMC4286194 (Biochemical Journal, 2015)

How the values were obtained:
TSSK1 = molecular target: T1, TSSK1 (Homo sapiens, UniProt Q9BXA7); assay: Kinase profiling; format: biochemical
T1 sequence (Q9BXA7 1-367): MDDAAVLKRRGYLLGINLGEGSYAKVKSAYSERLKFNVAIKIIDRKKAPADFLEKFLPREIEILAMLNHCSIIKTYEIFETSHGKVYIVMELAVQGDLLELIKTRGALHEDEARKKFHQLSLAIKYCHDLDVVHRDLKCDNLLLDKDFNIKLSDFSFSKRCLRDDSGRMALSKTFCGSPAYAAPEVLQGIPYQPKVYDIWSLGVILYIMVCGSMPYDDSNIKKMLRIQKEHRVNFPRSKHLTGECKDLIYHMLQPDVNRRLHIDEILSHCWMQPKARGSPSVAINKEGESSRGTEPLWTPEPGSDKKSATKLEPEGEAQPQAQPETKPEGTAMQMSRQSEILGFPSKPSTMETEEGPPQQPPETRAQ

PAK6 = PAK6 (Homo sapiens, UniProt Q9NQU5); assay: Kinase profiling; format: biochemical
[1] = tested on: RAW264.7 macrophages expressing HA-SIK2-WT; assay: IL-10 and Nurr77 mRNA in macrophages expressing wild-type SIK2; format: cell-based; conditions: cells expressing wild-type SIK2; drug 1 h, LPS 1 h
Method: Primary macrophages were generated by differentiating bone marrow from 6- to 12-week-old C57BL/6 mice for 7 days in Dulbecco's modified Eagle's medium (DMEM) supplemented with 5 ng/ml recombinant M-CSF (R&D systems), 2 mM glutamine, 10% FBS, penicillin and streptomycin. Bone-marrow-derived macrophages were differentiated on non-tissue-culture-treated plastic, harvested and replated at a density of 100000 cells/cm^2 per 0.1 ml on tissue culture-treated plastic in fresh medium before stimulation on day 8. RAW264.7 cells were cultured in DMEM containing 10% FBS, 2 mM glutamine and penicillin and streptomycin. […] Cells were treated for 1 h with or without inhibitors and then stimulated for up to 24 h with either 1 μg/ml Pam3CSK4 or 100 ng/ml LPS.
mRNA was extracted from cells using the MicroElute Total RNA kit following the manufacturers’ instructions (Omega Bio-Tek). cDNA was generated from 0.5 μg of total RNA using the iScript cDNA synthesis kit and quantified by quantitative real-time PCR (qPCR) using the SsoFast EvaGreen Supermix on a CFX384 real-time system (Bio-Rad Laboratories). The relative expression of each gene was calculated from CT values using the Pfaffl method and was normalized against the mRNA levels of housekeeping genes including 18S RNA and GAPDH.

JAK2 = JAK2 (Homo sapiens, UniProt O60674); assay: Kinase profiling; format: biochemical
p38 beta MAPK = p38 beta MAPK (Homo sapiens, UniProt Q15759); assay: Kinase profiling; format: biochemical
HIPK3 = HIPK3 (Homo sapiens, UniProt Q9H422); assay: Kinase profiling; format: biochemical
PRAK = molecular target: T2, PRAK (Homo sapiens, UniProt Q8IW41); assay: Kinase profiling; format: biochemical
T2 sequence (Q8IW41 1-473): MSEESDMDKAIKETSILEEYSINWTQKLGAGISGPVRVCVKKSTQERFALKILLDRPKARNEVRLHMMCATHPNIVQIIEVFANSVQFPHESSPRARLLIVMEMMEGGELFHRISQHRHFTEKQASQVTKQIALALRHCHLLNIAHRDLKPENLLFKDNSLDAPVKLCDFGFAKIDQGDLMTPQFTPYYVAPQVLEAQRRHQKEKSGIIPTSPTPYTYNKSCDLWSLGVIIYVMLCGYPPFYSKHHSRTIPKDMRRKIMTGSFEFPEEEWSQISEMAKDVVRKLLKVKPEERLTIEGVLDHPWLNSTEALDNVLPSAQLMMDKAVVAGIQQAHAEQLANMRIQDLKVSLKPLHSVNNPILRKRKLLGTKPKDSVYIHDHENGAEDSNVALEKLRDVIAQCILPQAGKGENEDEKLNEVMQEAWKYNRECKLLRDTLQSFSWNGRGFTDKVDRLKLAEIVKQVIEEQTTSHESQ

MNK1 = MNK1 (Homo sapiens, UniProt Q9BUB5); assay: Kinase profiling; format: biochemical
[2] = tested on: Bone-marrow-derived macrophages; assay: Pro-inflammatory cytokine secretion (BIOPLEX); format: cell-based, mouse; conditions: 3 μM bosutinib or 0.3 μM dasatinib 1 h, LPS 8 h
Method: The concentration of TNFα, IL-6, IL-10 and IL-12p40 in cell-free culture supernatants were measured using the Bio-Plex Pro Assay system (Bio-Rad).

IR = IR (Homo sapiens, UniProt P06213); assay: Kinase profiling; format: biochemical
PKB beta = PKB beta (Homo sapiens, UniProt P31751); assay: Kinase profiling; format: biochemical
PINK = molecular target: T3, PINK (Tribolium castaneum, UniProt D6WMX4); assay: Kinase profiling; format: biochemical
T3 sequence (D6WMX4 1-570): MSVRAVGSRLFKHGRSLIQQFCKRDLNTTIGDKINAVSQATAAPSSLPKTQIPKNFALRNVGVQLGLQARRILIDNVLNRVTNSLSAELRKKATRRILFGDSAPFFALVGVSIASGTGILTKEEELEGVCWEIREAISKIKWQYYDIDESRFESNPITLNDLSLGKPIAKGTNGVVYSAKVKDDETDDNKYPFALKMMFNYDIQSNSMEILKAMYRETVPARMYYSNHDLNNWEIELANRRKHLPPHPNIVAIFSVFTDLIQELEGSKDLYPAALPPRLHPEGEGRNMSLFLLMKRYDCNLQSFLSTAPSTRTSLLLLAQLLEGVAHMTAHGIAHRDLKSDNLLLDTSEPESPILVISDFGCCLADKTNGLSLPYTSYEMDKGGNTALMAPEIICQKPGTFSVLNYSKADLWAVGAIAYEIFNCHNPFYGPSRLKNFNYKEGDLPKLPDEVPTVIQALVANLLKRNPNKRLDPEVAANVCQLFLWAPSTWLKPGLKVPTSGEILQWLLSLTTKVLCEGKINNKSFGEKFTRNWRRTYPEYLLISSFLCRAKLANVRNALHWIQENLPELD

Sequence of JAK2 (O60674 whole entry): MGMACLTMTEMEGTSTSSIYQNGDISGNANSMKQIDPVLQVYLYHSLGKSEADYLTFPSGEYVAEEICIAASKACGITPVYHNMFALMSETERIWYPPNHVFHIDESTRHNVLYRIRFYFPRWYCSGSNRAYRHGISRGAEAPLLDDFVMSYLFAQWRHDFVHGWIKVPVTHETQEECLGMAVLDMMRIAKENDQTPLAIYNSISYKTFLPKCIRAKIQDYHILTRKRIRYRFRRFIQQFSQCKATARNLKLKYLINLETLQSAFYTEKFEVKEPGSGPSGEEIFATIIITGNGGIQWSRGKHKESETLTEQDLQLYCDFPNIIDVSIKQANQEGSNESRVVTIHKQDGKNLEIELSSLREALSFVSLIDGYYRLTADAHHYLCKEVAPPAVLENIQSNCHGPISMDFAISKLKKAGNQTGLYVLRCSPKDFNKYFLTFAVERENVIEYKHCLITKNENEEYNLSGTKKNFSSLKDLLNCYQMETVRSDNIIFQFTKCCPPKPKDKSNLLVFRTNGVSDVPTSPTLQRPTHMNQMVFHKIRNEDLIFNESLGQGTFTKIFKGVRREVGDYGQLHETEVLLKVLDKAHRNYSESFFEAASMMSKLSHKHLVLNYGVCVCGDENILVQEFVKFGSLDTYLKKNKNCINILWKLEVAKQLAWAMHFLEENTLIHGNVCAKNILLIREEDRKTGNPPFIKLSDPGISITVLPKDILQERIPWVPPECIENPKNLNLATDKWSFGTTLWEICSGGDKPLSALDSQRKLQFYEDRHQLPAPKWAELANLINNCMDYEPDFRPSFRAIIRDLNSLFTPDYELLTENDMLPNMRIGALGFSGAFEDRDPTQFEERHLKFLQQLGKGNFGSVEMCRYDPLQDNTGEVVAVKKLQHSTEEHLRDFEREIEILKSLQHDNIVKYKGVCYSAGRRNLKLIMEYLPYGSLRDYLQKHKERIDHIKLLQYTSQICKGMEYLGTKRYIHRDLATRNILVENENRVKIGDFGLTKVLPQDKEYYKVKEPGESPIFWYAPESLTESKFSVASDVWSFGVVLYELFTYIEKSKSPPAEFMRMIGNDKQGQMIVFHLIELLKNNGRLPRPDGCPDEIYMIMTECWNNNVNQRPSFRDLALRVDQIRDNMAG
Sequence of IR (P06213 28-1382): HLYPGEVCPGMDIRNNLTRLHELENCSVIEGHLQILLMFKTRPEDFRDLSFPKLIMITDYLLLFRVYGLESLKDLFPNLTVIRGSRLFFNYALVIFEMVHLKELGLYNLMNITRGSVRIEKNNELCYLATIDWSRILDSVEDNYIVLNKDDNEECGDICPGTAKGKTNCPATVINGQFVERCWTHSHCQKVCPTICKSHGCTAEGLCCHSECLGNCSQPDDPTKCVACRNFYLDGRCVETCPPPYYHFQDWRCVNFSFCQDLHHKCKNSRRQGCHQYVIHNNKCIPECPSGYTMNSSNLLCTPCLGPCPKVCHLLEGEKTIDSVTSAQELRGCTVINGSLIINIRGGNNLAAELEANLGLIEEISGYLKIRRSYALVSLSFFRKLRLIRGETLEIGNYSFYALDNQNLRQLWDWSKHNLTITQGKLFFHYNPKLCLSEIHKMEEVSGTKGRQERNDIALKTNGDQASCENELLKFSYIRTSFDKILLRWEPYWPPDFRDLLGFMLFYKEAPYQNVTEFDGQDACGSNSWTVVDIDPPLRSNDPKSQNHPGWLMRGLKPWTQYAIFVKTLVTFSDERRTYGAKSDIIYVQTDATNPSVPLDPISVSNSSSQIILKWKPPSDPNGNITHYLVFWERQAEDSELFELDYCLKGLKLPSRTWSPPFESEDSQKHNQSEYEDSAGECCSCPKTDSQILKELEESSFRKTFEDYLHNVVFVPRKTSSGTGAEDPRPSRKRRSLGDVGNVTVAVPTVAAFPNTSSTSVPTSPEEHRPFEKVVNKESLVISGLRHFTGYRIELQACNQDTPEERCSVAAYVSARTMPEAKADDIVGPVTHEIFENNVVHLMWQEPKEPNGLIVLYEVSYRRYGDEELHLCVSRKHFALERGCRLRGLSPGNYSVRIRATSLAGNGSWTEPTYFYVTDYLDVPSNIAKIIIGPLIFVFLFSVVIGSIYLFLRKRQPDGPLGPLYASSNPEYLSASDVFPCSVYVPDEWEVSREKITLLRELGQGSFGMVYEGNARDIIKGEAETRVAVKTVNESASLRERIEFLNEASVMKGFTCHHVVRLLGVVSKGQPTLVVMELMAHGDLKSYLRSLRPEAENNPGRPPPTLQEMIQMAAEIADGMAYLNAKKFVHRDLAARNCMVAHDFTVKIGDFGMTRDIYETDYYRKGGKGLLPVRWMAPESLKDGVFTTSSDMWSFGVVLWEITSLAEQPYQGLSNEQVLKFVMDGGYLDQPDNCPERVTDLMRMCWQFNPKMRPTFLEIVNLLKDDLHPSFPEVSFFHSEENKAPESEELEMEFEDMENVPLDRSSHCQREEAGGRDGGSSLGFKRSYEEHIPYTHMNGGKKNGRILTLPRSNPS
Sequence of MNK1 (Q9BUB5 whole entry): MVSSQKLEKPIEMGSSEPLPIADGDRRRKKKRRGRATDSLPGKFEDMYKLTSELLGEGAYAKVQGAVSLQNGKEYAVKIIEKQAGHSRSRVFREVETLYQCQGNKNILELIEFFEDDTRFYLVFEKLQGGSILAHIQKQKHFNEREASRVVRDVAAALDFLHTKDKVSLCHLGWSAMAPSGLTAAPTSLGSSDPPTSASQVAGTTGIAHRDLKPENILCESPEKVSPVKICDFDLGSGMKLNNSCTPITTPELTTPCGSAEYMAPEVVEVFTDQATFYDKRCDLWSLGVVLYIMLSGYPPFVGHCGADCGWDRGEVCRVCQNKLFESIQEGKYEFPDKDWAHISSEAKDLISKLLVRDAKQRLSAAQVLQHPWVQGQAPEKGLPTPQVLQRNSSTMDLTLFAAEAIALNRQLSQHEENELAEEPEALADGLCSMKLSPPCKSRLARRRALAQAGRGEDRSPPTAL
Sequence of HIPK3 (Q9H422 whole entry): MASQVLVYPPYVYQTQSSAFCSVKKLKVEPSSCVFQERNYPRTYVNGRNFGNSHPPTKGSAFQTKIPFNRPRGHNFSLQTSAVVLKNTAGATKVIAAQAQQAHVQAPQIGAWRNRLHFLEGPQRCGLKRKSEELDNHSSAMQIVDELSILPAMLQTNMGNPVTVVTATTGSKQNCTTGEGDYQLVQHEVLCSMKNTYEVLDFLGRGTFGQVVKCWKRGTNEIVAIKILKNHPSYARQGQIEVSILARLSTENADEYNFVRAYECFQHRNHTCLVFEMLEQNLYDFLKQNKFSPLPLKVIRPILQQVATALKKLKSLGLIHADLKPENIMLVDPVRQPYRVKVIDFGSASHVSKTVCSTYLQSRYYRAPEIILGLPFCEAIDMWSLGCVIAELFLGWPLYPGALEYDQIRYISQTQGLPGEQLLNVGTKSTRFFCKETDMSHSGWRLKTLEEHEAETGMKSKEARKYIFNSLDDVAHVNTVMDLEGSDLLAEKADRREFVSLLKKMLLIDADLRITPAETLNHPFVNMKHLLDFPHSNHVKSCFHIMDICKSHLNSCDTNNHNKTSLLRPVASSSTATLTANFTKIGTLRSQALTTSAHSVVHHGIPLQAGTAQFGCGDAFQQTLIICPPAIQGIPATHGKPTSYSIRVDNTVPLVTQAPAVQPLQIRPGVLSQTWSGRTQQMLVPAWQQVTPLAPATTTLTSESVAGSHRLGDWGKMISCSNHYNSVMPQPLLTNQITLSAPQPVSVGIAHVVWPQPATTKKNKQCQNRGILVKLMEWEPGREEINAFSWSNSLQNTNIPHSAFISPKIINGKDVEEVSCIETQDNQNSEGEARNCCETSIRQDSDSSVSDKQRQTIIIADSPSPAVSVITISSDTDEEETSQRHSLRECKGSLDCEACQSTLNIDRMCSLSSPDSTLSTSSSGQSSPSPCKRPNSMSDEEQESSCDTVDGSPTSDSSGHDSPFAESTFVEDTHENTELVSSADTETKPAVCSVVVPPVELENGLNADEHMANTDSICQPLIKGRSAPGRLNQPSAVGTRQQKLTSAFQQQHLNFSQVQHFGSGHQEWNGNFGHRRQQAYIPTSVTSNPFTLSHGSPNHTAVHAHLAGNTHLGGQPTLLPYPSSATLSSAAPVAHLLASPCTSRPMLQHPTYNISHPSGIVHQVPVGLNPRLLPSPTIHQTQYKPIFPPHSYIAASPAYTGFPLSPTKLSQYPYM
Sequence of PAK6 (Q9NQU5 whole entry): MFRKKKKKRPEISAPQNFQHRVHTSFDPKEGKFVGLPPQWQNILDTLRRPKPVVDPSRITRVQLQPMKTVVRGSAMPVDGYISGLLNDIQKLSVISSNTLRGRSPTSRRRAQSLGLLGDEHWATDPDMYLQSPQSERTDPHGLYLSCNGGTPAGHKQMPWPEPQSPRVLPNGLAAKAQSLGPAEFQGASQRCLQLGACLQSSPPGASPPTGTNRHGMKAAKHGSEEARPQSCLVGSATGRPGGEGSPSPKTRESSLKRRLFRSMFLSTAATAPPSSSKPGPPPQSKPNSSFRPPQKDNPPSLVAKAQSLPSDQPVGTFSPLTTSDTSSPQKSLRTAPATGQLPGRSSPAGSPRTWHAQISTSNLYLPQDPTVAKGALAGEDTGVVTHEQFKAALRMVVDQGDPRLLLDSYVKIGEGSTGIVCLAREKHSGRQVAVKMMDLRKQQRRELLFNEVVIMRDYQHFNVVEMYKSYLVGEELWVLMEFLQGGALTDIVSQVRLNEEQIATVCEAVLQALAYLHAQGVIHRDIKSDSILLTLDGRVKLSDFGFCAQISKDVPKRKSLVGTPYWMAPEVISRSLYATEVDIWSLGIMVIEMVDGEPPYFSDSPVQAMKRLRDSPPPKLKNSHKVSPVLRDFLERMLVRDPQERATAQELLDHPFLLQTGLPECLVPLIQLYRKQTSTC

Question: With COc1cc(Nc2c(C#N)cnc3cc(OCCCN4CCN(C)CC4)c(OC)cc23)c(Cl)cc1Cl [Bosutinib, bosutinib] as the molecule, how does the remaining activity at 0.1 µM (TSSK1) read?
Answer: The remaining activity at 0.1 µM was 67 ± 1%.

Question: What about the remaining activity at 1 µM (TSSK1) of the same molecule?
Answer: Its remaining activity at 1 µM is 22 ± 2%.

Question: What about the remaining activity at 1 µM (PAK6) of the same molecule?
Answer: Its remaining activity at 1 µM is 132 ± 7%.

Question: And the “LPS-stimulated CREB-dependent gene transcription including IL-10 and Nurr77” value [1]?
Answer: The value was “strongly potentiate”.

Question: What about the remaining activity at 0.1 µM (JAK2) of the same molecule?
Answer: Its remaining activity at 0.1 µM is 72 ± 5%.

Question: And the remaining activity at 1 µM (JAK2)?
Answer: The remaining activity at 1 µM was 26%.

Question: What about the remaining activity at 0.1 µM (p38 beta MAPK) of the same molecule?
Answer: Its remaining activity at 0.1 µM is 94 ± 15%.

Question: And the remaining activity at 1 µM (p38 beta MAPK)?
Answer: The remaining activity at 1 µM was 108 ± 24%.

Question: And the remaining activity at 1 µM (HIPK3)?
Answer: The remaining activity at 1 µM was 66 ± 5%.

Question: What about the remaining activity at 0.1 µM (PRAK) of the same molecule?
Answer: Its remaining activity at 0.1 µM is 97 ± 2%.

Question: And the remaining activity at 1 µM (PRAK)?
Answer: The remaining activity at 1 µM was 125 ± 1%.

Question: And the remaining activity at 0.1 µM (MNK1)?
Answer: Its remaining activity at 0.1 µM is 99 ± 14%.

Question: And the remaining activity at 1 µM (MNK1)?
Answer: The remaining activity at 1 µM was 105 ± 2%.

Question: What about the “Production of IL-6, IL-12p40 and TNFα” value [2] of the same molecule?
Answer: Its value is “inhibited”.

Question: And the remaining activity at 0.1 µM (IR)?
Answer: Its remaining activity at 0.1 µM is 87 ± 7%.

Question: And the remaining activity at 1 µM (IR)?
Answer: Its remaining activity at 1 µM is 107 ± 34%.

Question: What about the remaining activity at 0.1 µM (PKB beta) of the same molecule?
Answer: Its remaining activity at 0.1 µM is 102 ± 6%.

Question: And the remaining activity at 1 µM (PKB beta)?
Answer: Its remaining activity at 1 µM is 90 ± 3%.

Question: And the remaining activity at 0.1 µM (PINK)?
Answer: Its remaining activity at 0.1 µM is 112 ± 9%.

Question: And the remaining activity at 1 µM (PINK)?
Answer: Its remaining activity at 1 µM is 125 ± 13%.

Question: How did the remaining activity at 0.1 µM (TSSK1) turn out when Cc1nc(Nc2ncc(C(=O)Nc3c(C)cccc3Cl)s2)cc(N2CCN(CCO)CC2)n1 [Dasatinib] was run?
Answer: Its remaining activity at 0.1 µM is 106 ± 11%.

Question: And the remaining activity at 1 µM (TSSK1)?
Answer: Its remaining activity at 1 µM is 113 ± 3%.

Question: And the remaining activity at 0.1 µM (PAK6; 0.1 µM)?
Answer: The remaining activity at 0.1 µM was 126 ± 9%.

Question: And the remaining activity at 1 µM (PAK6)?
Answer: The remaining activity at 1 µM was 120 ± 4%.

Question: And the “LPS-stimulated CREB-dependent gene transcription including IL-10 and Nurr77” value [1]?
Answer: The value was “strongly potentiate”.

Question: What about the remaining activity at 0.1 µM (JAK2) of the same molecule?
Answer: The remaining activity at 0.1 µM was 94 ± 2%.

Question: And the remaining activity at 1 µM (JAK2)?
Answer: Its remaining activity at 1 µM is 42 ± 1%.

Question: What about the remaining activity at 0.1 µM (p38 beta MAPK) of the same molecule?
Answer: The remaining activity at 0.1 µM was 105 ± 11%.

Question: What about the remaining activity at 1 µM (p38 beta MAPK) of the same molecule?
Answer: Its remaining activity at 1 µM is 44 ± 4%.

Question: What about the remaining activity at 0.1 µM (HIPK3; 0.1 µM) of the same molecule?
Answer: The remaining activity at 0.1 µM was 102 ± 3%.

Question: What about the remaining activity at 1 µM (HIPK3) of the same molecule?
Answer: The remaining activity at 1 µM was 113 ± 7%.

Question: And the remaining activity at 0.1 µM (PRAK)?
Answer: Its remaining activity at 0.1 µM is 129 ± 14%.

Question: What about the remaining activity at 1 µM (PRAK) of the same molecule?
Answer: The remaining activity at 1 µM was 128 ± 7%.

Question: What about the remaining activity at 0.1 µM (MNK1) of the same molecule?
Answer: The remaining activity at 0.1 µM was 108%.

Question: What about the remaining activity at 1 µM (MNK1) of the same molecule?
Answer: The remaining activity at 1 µM was 102 ± 9%.

Question: What about the “Production of IL-6, IL-12p40 and TNFα” value [2] of the same molecule?
Answer: Its value is “inhibited”.

Question: What about the remaining activity at 0.1 µM (IR) of the same molecule?
Answer: The remaining activity at 0.1 µM was 99 ± 2%.

Question: And the remaining activity at 1 µM (IR)?
Answer: Its remaining activity at 1 µM is 94 ± 7%.

Question: And the remaining activity at 0.1 µM (PKB beta)?
Answer: Its remaining activity at 0.1 µM is 94 ± 11%.

Question: What about the remaining activity at 1 µM (PKB beta) of the same molecule?
Answer: Its remaining activity at 1 µM is 94 ± 2%.

Question: What about the remaining activity at 0.1 µM (PINK) of the same molecule?
Answer: The remaining activity at 0.1 µM was 117 ± 1%.

Question: What about the remaining activity at 1 µM (PINK) of the same molecule?
Answer: The remaining activity at 1 µM was 133 ± 5%.
